No end group written: not given here. *: point of attachment. Biotin = O=C1N[C@H]2[C@H](CS[C@H]2CCCCC(=O)*)N1
Legend:
PPARα-LBD [1] = target: T1, PPARα-LBD (Homo sapiens, UniProt Q07869); test: Thermal stability assay using circular dichroism spectroscopy; type: binding; set-up: Human PPARα-LBD (amino acids 200–468); His tag (pET28a) (N); made in house; host or cells: Rosetta (DE3) pLysS (E. coli); conditions: CD at 222 nm; 10 µM LBD; GW7647 at 10 µM
T1 sequence (Q07869 200-468): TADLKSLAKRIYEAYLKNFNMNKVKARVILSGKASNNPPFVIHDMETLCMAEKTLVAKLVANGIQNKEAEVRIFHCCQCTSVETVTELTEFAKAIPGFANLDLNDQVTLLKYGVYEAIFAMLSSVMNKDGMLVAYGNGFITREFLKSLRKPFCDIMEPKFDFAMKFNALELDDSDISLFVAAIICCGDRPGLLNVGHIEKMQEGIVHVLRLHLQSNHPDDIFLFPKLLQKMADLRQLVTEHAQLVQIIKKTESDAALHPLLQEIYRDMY
Description: (§1) PPARα/δ/γ-LBD proteins (10 µM) were incubated with different concentrations of ligands in buffer C consisting of 20 mM Tris-HCl (pH 8.0), 150 mM NaCl, 1 mM Tris 2-carboxyethylphosphine (TCEP)-HCl, and 10% glycerol. The circular dichroism (CD) spectra were monitored within a 200–260 nm range at increasing temperatures from 30 °C to 70 °C (2 °C/min) using a J-1500 spectropolarimeter equipped with a PTC-510 thermal controller (JASCO, Tokyo, Japan). […] The ligand-induced increases in the Tm values were defined as ∆Tm.
(§2) Nuclear receptors, including PPARs, display an increased thermal stability upon ligand binding, which is detectable through CD spectroscopy.
(§3) Figure 3 Circular dichroism-based PPARα/δ/γ-LBD thermal stability assay. […] Data are presented as the mean ± SE of three or four (in parentheses) independent experiments. Differences vs. basal levels (with 0.1% DMSO) were statistically assessed by one-way ANOVA, followed by a Dunnett’s post hoc test: * p < 0.05, ** p < 0.01, and *** p < 0.001.

PPARα-LBD [2] = target: T1, PPARα-LBD; set-up: Human PPARα-LBD (amino acids 200–468); made in house; host or cells: Rosetta (DE3) pLysS (E. coli); method as in PMID 33205029; conditions: read-out: EC50 in the PGC1α recruitment activity (PPARα); cited from earlier work
PPARγ-LBD = target: T2, PPARγ-LBD (Homo sapiens, UniProt P37231); test: Thermal stability assay using circular dichroism spectroscopy; type: binding; set-up: PPARγ-LBD (amino acids 203–477 in isoform 1); His tag (pET28a) (N); made in house; host or cells: Rosetta (DE3) pLysS (E. coli); conditions: CD at 222 nm; 10 µM LBD; GW1929 at 10 µM
T2 sequence (P37231 203-477 isoform P37231-2): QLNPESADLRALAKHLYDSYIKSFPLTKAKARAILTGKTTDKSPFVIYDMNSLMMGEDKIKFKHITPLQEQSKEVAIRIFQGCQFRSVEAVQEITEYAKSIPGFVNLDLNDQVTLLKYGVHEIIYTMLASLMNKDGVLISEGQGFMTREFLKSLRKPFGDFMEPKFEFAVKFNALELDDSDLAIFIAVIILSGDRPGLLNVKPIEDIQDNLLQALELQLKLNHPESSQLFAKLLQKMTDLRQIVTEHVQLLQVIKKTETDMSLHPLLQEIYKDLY
Description: as §1, §2, §3

PPARδ-LBD = target: T3, PPARδ-LBD (Homo sapiens, UniProt Q03181); test: as above; type: binding; set-up: PPARδ-LBD (amino acids 170–441); His tag (pET28a) (N); made in house; host or cells: Rosetta (DE3) pLysS (E. coli); conditions: CD at 222 nm; 10 µM LBD; GW501516 at 50 µM
T3 sequence (Q03181 170-441): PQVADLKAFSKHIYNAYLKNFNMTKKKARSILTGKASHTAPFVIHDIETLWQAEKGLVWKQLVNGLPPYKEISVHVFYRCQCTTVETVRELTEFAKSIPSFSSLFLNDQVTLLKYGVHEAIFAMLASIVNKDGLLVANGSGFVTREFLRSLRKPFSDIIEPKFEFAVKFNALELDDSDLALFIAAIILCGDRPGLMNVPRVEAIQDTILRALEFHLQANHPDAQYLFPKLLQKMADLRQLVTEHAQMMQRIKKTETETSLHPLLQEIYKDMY
Description: as §1, §2, §3

human PPARα = target: T4, human PPARα (Homo sapiens, UniProt Q07869); test: Transactivation assay (GAL4–hPPARα-LBD chimera, luciferase reporter, COS-7 cells); type: cell-based; conditions: 100% = 1 µM GW7647, read-out: Efficacy, PPARα transactivation (% of the maximal response)
T4 construct: expressed in transfected cells; host or cells: COS-7
T4 sequence (Q07869 239-466 limits assumed): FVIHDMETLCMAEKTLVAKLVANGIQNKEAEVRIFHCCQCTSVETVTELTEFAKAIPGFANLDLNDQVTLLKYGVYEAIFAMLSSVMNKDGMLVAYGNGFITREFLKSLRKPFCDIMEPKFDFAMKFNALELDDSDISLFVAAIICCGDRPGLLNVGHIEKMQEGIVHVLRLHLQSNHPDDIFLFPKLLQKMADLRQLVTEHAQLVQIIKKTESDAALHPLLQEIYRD
Description: (§4) The pSG5-GAL–hPPARα/δ/γ plasmids express fusion proteins comprising the yeast transcription factor GAL4 DNA-binding domain and each of the human PPARα/δ/γ-LBDs. The MH100(UAS)×4-tk-Luc plasmid contains four copies of the MH100 GAL4 binding site and the Firefly luciferase gene. The cells were transfected with those plasmids and were treated with various PPAR ligands, and both Firefly and Renilla luciferase activities were measured using the Dual-Glo Luciferase Assay System (Promega, Madison, WI, USA) as described previously. […] GW1929 was purchased from Sigma-Aldrich (St. Louis, MO, USA).
(§5) For the undertaking of the comparison of the potency, efficacy, and selectivity of the five PPAR ligands (Figure 1A) against the PPAR subtypes, we evaluated their PPARα/δ/γ activation using three different methods: a cell-based transactivation assay, a coactivator recruitment assay, and a thermal stability assay, as we previously performed on three fibrates (namely, bezafibrate, fenofibric acid, and pemafibrate). The cell-based transactivation assay utilizing the Gal4–PPAR-LBD system is the most widely used method for the determination of PPAR activation by certain ligands, although their responses depend on the used cell types in which several coactivators with altered functions are differentially expressed.
(§6) Figure 1 LBD-mediated human PPARα/δ/γ transactivation by PPAR ligands. (A) Chemical structures of the five PPAR ligands used in this study. […] Data are presented as the mean ± standard error (SE) of three independent experiments with duplicate samples.

human PPARδ = target: T5, human PPARδ (Homo sapiens, UniProt Q03181); test: Transactivation assay (GAL4–hPPARδ-LBD chimera, luciferase reporter, COS-7 cells); type: cell-based; conditions: COS-7, read-out: Efficacy, PPARδ transactivation (% of the maximal response)
T5 construct: expressed in transfected cells; host or cells: COS-7
T5 sequence (Q03181 211-439 limits assumed): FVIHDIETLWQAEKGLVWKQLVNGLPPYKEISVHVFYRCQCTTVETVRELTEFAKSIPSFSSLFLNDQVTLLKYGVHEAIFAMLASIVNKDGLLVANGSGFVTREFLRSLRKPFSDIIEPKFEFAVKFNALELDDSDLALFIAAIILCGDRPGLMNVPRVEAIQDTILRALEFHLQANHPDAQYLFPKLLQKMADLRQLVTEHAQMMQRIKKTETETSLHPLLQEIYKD
Description: as §4, §5, §6

[3] = target: T6, Human PPARα-LBD (amino acids 200–468), amino-terminal His-tagged (human, UniProt Q07869 200-468); test: FRET or BRET; LANCE Ultra TR-FRET; His-tagged LBD (400 nM solution, 9.5 µL) + biotin-PGC1α (4 µM, 5 µL) or biotin-SRC1 peptide (8 µM, 5 µL), Eu-W1024 anti-6×His antibody / ULight-Streptavidin, 2 h, room temperature; buffer A (10 mM HEPES-NaOH pH 7.4, 150 mM NaCl, 0.005% Tween 20, 0.1% BSA) for PPARα/γ-LBD, buffer B (50 mM HEPES-NaOH pH 7.4, 50 mM KCl, 1 mM EDTA, 0.5 mM DTT, 0.1% BSA) for PPARδ-LBD; ligand: reference …; conditions: both partners purified
T6 construct: The His tag is detected by the anti-6xHis antibody in the TR-FRET assay; A delipidized preparation was used for some PPARα crystals; also called hPPARα-LBD; not shown: His tag, N-terminal, kept
T6 sequence (looked up): T1 sequence (Q07869 200-468)

## CC(C)(Sc1ccc(CCN(CCCCC2CCCCC2)C(=O)NC2CCCCC2)cc1)C(=O)O [GW7647]
PPARα-LBD [1]
  Effect on Tm of PPARα-LBD (in words): highly increased Tm values

## CC(C)(Oc1ccc(Cl)cc1)C(=O)O [clofibric acid]
PPARα-LBD [2]
  EC50: 574 µM

## GW1929
PPARγ-LBD
  Effect on Tm of PPARγ-LBD (in words): highly increased Tm values

## CCc1ccc(CCOc2ccc(CC3SC(=O)NC3=O)cc2)nc1 (centres unmarked) [pioglitazone]
PPARδ-LBD
  Effect on Tm of PPARδ-LBD (in words): no effects
Human PPARα
  Emax: 25.2%
PPARα-LBD [1]
  Effect on Tm of PPARα-LBD (in words): no effects
Human PPARδ
  Emax: 0.518%

B1: biotin-labeled PPARγ coactivator 1α (PGC1α) coactivator peptide (amino acids 137–155) (peptide)
peptide: Biotin-EAEEPSLLKKLLLAPANTQ
notes: also called biotin-PGC1α; source: synthetic peptide (GenScript)
[3]
  binding result: binds
